Measurements taken from ChEMBL document CHEMBL4190175 (Medchemcomm, 2016).
In brackets after ≈: the same amount, converted by molar mass.

What was measured:
[1] = target: T1, Transient receptor potential cation channel subfamily A member 1 (Homo sapiens, UniProt O75762); assay: Antagonist activity at human TRPA1 oS5 chimera containing (870 to 896 residues) expressed in 293-T-REx cells at holding potential of 15 mV measured after 1 min by PatchXpress electrophysiology assay; format: cell-based
[2] = Stability in human liver microsomes assessed as metabolic turnover number at 10 uM after 15 mins by LC-MS/UV analysis; format: ADME, microsome; settings: read-out: Stability
[3] = Passive permeability of the compound in RRCK cells; format: ADME, cell-based, Canis lupus familiaris, MDCKII-LE; settings: dog, MDCK; read-out: permeability
[4] = Lipophilicity, log D of the compound; format: physicochemical; settings: octanol/water
[5] = Ratio of permeability from basolateral to apical side over apical to basolateral side in RRCK cells expressing MDR1; format: ADME, cell-based, Canis lupus familiaris; settings: dog, mdckii-le
[6] = Dissociation constant, pKa of the compound; format: physicochemical
[7] = Antagonist activity at pig TRPA1 by electrophysiology assay; set-up: species or system Sus scrofa
[8] = tested on: Hepatocyte; assay: Stability in human hepatocytes; format: ADME, cell-based
[9] = Stability in rat liver microsomes; format: ADME, microsome; settings: read-out: Stability
[10] = tested on: Hepatocyte; assay: Stability in rat hepatocytes; format: ADME, cell-based
[11] = Kinetic solubility of the compound at pH 6.5; format: physicochemical; settings: buffer, read-out: Kinetic_solubility
[12] = Thermodynamic solubility of the compound; format: physicochemical; settings: read-out: Therm_solubility
[13] = Fraction unbound in human plasma; format: ADME, cell-free
[14] = Fraction unbound in dog plasma; format: ADME, cell-free, Canis lupus familiaris
[15] = Fraction unbound in rat plasma; format: ADME, cell-free
[16] = tested on: Salmonella typhimurium; assay: Genotoxicity in Salmonella typhimurium by Ames test; format: toxicity, organism-based; settings: salmonella enterica subsp. enterica serovar typhimurium
[17] = target: Transient receptor potential cation channel subfamily V member 1 (Homo sapiens, UniProt Q8NER1); assay: Inhibition of human TRPV1
Sequence of Transient receptor potential cation channel subfamily V member 1 (Q8NER1 whole entry): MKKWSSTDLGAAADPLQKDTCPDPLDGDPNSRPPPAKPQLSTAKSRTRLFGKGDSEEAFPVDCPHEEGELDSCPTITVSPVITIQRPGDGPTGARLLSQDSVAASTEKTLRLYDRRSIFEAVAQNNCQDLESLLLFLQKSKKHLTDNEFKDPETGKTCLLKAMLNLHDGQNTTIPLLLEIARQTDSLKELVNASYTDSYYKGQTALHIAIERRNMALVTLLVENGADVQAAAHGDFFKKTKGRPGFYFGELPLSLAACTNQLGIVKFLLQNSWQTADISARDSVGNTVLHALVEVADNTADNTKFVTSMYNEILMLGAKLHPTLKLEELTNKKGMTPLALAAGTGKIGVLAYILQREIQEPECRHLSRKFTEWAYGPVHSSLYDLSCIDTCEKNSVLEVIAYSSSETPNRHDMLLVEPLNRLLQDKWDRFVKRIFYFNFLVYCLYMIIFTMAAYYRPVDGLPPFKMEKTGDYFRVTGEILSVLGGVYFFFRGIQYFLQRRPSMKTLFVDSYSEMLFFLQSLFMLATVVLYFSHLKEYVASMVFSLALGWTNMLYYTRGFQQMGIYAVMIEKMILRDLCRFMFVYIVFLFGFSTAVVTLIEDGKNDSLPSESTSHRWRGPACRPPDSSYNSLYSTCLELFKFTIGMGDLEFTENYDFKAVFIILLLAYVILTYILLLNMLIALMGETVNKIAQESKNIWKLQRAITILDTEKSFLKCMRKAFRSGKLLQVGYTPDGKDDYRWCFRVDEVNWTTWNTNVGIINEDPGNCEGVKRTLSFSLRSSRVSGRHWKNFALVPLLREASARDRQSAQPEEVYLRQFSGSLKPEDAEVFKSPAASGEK

[18] = target: Potassium voltage-gated channel subfamily A member 5 (Homo sapiens) (UniProt P22460); assay: Inhibition of Kv1.5 (unknown origin)
Sequence of Potassium voltage-gated channel subfamily A member 5 (Homo sapiens) (P22460 whole entry): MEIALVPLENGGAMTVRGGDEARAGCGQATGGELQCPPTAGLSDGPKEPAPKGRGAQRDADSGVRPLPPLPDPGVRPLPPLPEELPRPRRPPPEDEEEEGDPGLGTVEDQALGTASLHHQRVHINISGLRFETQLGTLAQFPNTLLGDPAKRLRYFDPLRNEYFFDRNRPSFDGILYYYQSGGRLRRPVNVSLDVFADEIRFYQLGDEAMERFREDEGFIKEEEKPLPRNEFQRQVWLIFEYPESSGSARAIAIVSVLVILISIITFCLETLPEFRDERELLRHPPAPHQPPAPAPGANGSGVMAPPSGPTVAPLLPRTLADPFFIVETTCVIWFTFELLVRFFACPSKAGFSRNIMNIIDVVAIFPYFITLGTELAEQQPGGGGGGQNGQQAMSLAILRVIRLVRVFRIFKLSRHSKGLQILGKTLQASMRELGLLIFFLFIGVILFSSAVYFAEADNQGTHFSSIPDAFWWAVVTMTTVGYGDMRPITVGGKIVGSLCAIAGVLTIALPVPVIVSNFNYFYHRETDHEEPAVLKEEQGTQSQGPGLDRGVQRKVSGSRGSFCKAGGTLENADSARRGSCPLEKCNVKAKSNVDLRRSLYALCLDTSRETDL

[19] = target: T2, Potassium voltage-gated channel subfamily KQT member 1 (Homo sapiens, UniProt P51787); assay: Inhibition of KvLQT1 (unknown origin)
T2 sequence (P51787 whole entry): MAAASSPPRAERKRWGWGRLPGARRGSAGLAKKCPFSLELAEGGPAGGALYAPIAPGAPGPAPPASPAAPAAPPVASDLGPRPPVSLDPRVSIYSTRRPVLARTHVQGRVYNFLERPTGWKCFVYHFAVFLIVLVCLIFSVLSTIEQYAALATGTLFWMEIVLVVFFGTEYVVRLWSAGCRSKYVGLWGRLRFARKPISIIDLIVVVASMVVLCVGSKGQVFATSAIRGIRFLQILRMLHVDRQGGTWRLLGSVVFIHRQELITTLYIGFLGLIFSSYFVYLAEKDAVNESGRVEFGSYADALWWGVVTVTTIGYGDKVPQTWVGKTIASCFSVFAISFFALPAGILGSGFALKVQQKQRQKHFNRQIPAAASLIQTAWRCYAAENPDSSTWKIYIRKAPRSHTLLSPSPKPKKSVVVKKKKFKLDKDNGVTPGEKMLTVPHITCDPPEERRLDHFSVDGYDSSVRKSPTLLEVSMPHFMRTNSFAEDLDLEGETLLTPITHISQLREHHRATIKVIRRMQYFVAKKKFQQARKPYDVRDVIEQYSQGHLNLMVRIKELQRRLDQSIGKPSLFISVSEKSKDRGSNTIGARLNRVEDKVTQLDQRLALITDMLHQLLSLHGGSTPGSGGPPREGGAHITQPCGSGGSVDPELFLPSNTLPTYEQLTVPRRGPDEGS

[20] = target: Voltage-gated inwardly rectifying potassium channel KCNH2 (Homo sapiens, UniProt Q12809); assay: Inhibition of dofetilide binding to human ERG
Sequence of Voltage-gated inwardly rectifying potassium channel KCNH2 (Q12809 whole entry): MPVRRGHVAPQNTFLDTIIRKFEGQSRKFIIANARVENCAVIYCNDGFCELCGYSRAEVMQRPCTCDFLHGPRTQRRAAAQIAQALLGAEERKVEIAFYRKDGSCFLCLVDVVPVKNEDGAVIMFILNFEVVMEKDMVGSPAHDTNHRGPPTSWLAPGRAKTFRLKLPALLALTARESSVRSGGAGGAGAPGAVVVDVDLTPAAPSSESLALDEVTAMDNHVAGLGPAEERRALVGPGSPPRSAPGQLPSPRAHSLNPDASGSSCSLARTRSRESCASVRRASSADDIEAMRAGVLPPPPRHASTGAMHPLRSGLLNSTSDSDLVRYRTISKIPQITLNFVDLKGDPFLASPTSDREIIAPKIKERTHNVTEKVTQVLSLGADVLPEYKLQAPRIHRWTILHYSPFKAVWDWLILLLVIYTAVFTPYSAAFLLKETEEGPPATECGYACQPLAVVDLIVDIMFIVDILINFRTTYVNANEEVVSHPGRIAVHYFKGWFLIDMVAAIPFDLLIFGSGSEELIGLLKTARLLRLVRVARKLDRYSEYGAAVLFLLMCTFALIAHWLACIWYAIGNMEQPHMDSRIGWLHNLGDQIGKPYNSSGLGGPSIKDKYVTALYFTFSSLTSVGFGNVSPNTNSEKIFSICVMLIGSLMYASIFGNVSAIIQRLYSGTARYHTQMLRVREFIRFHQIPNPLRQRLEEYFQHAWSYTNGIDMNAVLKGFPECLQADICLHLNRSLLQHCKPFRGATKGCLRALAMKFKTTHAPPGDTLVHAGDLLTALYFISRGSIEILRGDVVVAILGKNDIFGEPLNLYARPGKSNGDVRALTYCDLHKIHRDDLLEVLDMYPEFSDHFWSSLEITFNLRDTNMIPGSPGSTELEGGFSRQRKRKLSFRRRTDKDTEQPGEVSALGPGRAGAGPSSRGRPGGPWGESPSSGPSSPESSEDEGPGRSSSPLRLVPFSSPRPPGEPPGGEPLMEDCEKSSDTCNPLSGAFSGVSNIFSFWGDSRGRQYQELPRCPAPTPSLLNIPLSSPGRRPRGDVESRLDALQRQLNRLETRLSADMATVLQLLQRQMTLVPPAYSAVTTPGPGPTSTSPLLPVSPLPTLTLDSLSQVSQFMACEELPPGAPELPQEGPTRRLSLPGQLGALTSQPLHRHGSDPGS

[21] = Inhibition of sodium channel site 2 (unknown origin); set-up: species or system Homo sapiens
[22] = target: T3, Cytochrome P450 1A2 (Homo sapiens, UniProt P05177); assay: Inhibition of CYP1A2 (unknown origin); format: ADME
T3 sequence (P05177 whole entry): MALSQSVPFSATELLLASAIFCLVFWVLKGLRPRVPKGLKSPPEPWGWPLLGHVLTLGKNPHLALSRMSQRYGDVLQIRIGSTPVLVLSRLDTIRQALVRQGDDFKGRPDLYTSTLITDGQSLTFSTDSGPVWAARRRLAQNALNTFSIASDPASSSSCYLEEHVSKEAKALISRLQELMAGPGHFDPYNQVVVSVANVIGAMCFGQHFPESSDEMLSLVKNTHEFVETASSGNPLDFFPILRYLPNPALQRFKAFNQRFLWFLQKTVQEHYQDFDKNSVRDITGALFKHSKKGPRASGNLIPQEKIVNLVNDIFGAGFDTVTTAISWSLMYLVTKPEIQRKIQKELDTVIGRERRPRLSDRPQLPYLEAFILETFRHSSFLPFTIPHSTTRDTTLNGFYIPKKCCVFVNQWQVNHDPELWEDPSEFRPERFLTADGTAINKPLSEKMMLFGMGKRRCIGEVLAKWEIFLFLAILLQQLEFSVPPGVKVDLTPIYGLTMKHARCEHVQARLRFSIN

[23] = target: Cytochrome P450 2D6 (Homo sapiens, UniProt P10635); assay: Inhibition of CYP2D6 (unknown origin); format: ADME
Sequence of Cytochrome P450 2D6 (P10635 whole entry, the tested form may be a part): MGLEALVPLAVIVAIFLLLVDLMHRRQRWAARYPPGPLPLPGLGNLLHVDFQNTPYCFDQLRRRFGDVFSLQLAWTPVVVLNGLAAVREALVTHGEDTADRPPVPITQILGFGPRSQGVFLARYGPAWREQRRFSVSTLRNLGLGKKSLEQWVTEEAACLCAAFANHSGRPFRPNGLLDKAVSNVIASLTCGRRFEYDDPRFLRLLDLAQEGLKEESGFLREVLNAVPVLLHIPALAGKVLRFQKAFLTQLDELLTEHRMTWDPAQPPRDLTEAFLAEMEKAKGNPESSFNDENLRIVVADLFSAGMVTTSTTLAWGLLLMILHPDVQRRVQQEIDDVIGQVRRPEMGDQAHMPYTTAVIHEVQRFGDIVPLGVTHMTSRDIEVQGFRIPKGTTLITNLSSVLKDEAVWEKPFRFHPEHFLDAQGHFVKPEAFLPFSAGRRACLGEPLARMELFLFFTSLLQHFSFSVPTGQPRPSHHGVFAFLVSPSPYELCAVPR

[24] = Antagonist activity at opossum TRPA1 hS5 chimera containing (867 to 983 residues) expressed in 293-T-REx cells at holding potential of 15 mV measured after 1 min by PatchXpress electrophysiology assay; format: cell-based; settings: Monodelphis domestica, 293Trex
[25] = Antagonist activity at full length opossum TRPA1 at holding potential of 15 mV measured after 1 min by PatchXpress electrophysiology assay; set-up: species or system Monodelphis domestica
[26] = target: T1, Transient receptor potential cation channel subfamily A member 1; assay: Antagonist activity at full length human TRPA1 at holding potential of 15 mV measured after 1 min by PatchXpress electrophysiology assay
[27] = Clearance in rat; format: ADME, organism-based; settings: in vivo
[28] = Volume of distribution at steady state in rat; format: ADME, organism-based; settings: in vivo, read-out: Vdss
[29] = Half life in rat; format: ADME, organism-based; settings: in vivo
[30] = Oral bioavailability in rat; format: ADME, organism-based; settings: in vivo
[31] = Permeability in Sprague-Dawley rat skin at 0.68 mg applied topically measured after 24 hrs; format: ADME, tissue-based, Zone of skin; settings: in vivo, topical_or_ocular
[32] = Drug uptake in Sprague-Dawley rat skin dermal layer at 0.68 mg applied topically measured after 24 hrs; format: ADME, tissue-based, Dermis; settings: topical or ocular, read-out: Drug uptake

T1 sequence (O75762 whole entry, the tested form may be a part): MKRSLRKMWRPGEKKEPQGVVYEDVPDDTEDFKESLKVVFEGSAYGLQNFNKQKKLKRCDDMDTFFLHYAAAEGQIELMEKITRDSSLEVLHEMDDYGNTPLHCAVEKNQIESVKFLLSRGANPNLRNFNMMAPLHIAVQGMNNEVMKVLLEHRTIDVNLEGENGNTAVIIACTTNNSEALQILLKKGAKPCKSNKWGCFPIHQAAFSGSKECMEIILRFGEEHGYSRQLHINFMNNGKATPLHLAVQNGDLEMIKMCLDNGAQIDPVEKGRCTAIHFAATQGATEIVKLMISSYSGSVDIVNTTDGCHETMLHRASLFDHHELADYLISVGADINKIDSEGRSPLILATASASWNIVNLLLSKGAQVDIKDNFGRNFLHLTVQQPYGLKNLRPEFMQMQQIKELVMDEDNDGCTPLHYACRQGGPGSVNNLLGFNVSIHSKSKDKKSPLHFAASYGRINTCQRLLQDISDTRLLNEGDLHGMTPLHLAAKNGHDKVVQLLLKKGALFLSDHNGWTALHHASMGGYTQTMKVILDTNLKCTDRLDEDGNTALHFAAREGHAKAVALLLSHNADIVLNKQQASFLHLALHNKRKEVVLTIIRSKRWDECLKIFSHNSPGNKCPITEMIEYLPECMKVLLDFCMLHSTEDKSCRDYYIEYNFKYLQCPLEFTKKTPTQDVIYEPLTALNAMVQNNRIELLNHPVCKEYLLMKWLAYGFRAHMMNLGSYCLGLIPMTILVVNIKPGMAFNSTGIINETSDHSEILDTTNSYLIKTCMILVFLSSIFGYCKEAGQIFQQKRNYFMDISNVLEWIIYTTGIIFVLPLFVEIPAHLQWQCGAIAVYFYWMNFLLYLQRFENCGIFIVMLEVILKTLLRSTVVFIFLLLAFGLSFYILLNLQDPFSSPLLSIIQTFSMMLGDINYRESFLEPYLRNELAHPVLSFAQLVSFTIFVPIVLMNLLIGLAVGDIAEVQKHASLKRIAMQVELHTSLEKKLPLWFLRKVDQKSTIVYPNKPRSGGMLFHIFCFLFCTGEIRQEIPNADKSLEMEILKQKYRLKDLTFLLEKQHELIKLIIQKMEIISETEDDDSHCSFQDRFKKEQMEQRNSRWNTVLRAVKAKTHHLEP

O=C(NC[C@@H](Cc1ccccc1)N1CCC(O)(C(F)(F)F)CC1)C1(c2ccc(Cl)cc2)CCCC1
IC50 [1]: 1580 nM
microsomal CLint at 10 µM [2]: 246 µL/min/mg
Papp [3]: 1 ×10⁻⁶ cm/s
logD [4]: 4.7 to 5
Ratio [5]: 11
pKa [6]: 5.9
IC50 [7]: 65 nM
Stability [8]: 38 µL/min/mg
microsomal CLint [9]: 524 µL/min/mg
Stability [10]: 30 µL/min/mg
solubility kinetic [11]: 12 µM (≈ 6.11 µg/mL)
solubility thermodynamic [12]: 0.6 µg/mL (≈ 1.18 µM)
fraction unbound [13]: 0.0011
fraction unbound [14]: 0.0008
fraction unbound [15]: 0.00057
Activity [16]: Non-Toxic
IC50 [17]: > 3000 nM
INH [18]: > 3000 nM
INH [19]: > 3000 nM
Ki [20]: 25700 nM
IC50 [21]: 730 nM
IC50 [22]: > 30000 nM
IC50 [23]: 450 nM
IC50 [24]: 20 nM
IC50 [25]: ≥ 3000 nM
IC50 [26]: 0.72 to 8 nM
clearance [27]: 42 mL/min/kg
Vd [28]: 3.99 L/kg
half-life [29]: 4.4 h
bioavailability [30]: 5%
permeability [31]: 0.1 ×10⁻⁵ cm/hr
concentration at 24 h [32]: 640000 ng/g
